Reference: patent US12209060B2, “Ketamine derivatives and compositions thereof” (XWPHARMA LTD., priority 2018, dated 2025)
Read-outs that look alike come from different tables or passages of the source.

Tests used:
[1] = cited from earlier work; for Cmax / Tmax / oral bioavailability: humans, orally administered 50 mg tablet, Yanagihara et al. 2003
[2] = Whole blood stability (ketamine formation), monkey; format: in vitro ADME; settings: ketamine formed, S-ketamine = 100
[3] = Whole blood stability (ketamine formation), mouse; format: in vitro ADME; settings: ketamine formed, S-ketamine = 100
[4] = Whole blood stability (ketamine formation), rat; format: in vitro ADME; settings: 3 μM, 37° C., up to 60 min, ketamine formed, S-ketamine = 100
Protocol: Whole Blood Stability Assay: Test compounds were incubated in 37° C. pre-warmed rat whole blood at 3 μM (final acetonitrile concentration 1%) for up to 60 min at 37° C. One-hundred 100 μL aliquots of spiked sample solutions were taken at pre-defined time points (0 to 60 min) post incubation, and were immediately extracted by adding 5 volumes of extraction solvent and then centrifuged at 20,000×g for 5 min. The supernatant fractions were analyzed with LC-MS/MS for the amount of the test compound remaining and ketamine.

[5] = In vivo Monkey PK studies; settings: for AUC(0-∞) / Cmax: S-ketamine in blood
Protocol: The de-proteinized samples were temporarily held in ice following by storing at −70° C. before bioanalysis.
(§1) Bio-Analysis: Samples were monitored for parent compound disappearance and ketamine formation in multi-reaction monitoring (MRM) mode by LC-MS/MS system. The mobile phase was performed at a constant flow rate of 0.8 mL/min using a binary solvent system: Solvent A, de-ionized water containing 0.10% formic acid, and Solvent B, methanol containing 0.10% formic acid. MRM data were acquired, and the chromatograms were integrated using Quant Wizard of the version 1.5.2 software (Analyst Software from ABI). A weighted (1/x or 1/x^2) linear regression was used to generate the calibration curve from standards and to calculate the sample concentrations.
(§2) Pharmacokinetic Data Analysis: The pharmacokinetic parameters were estimated for each subject using the Phoenix™ WinNonlin program, version 6.3 (Phoenix WinNonlin© 2012, Pharsight Corporation, Mountain View, CA). Non-compartmental analysis was performed to generate parameter estimates. The terminal elimination rate constant (λ) was obtained, where possible, by linear regression of the terminal elimination phase of a log-linear plot of the blood concentration-time data. The criteria for λ acceptance were regression of at least three time points from the terminal elimination phase and r^2≥0.85. Half-life was defined as not determined (ND) if the criteria could not be met. Nominal time was used for t1/2 and AUC calculations. The apparent blood terminal elimination half-life (t1/2) was calculated according to the following formula: t1/2=ln(2)/λ. The observed maximum blood concentration (Cmax) and the time to reach the maximum blood concentration (Tmax) were obtained by visual inspection of the experimental data. The area under the blood concentration-time curve of ketamine from time 0 to the last measurable concentration (AUC(0-Last)) was determined by the linear trapezoidal method. The area under the blood concentration-time curve from time 0 to infinity (AUC(0-∞)) was determined by AUC(0-Last)+CLast/λ, in which CLast was the concentration corresponding to the time point of last measurable concentration (TLast).

[6] = Whole blood stability (ketamine formation), human; format: in vitro ADME; settings: ketamine formed, S-ketamine = 100
[7] = Whole blood stability (ketamine formation), dog; format: in vitro ADME; settings: ketamine formed, S-ketamine = 100
In vivo Rat PK Studies = assay: In vivo Rat PK Studies; set-up: species or system rats; settings: oral; bioavailability with respect to S-ketamine; oral dose level 5 μmol/kg to 160 μmol/kg
Protocol: (§3) In vivo Mouse/Rat PK Studies: Pharmacokinetic profiles of the test compounds were evaluated in mice and rats […] (S-ketamine or prodrugs) administration. The oral dose level was 5 μmol/kg to 160 μmol/kg administered at a volume of 10 mL/kg. Blood samples were collected from the facial veins using heparinated tubes at pre-dose and 0.05, 0.17, 0.5, 1, 2, 3, 4, 6, and 8 hours post-dose following intravenous administration, and withdrawn at pre-dose and 0.17, 0.5, 1, 2, 3, 4, 5, 6, and 8 hours post-dose following oral administration. In each mouse PK study, mice were sub-grouped for a sparse sampling strategy. Each mouse provided two blood samples at different collection times. Blood samples were collected from alternating groups of three mice per time point.
(§4) Non-compartmental analysis was performed to generate parameter estimates.

In vivo Mouse PK Studies = assay: In vivo Mouse PK Studies; set-up: species or system mice; settings: oral; bioavailability with respect to S-ketamine; oral dose level 5 μmol/kg to 160 μmol/kg
Protocol: as §3, §4

In vivo Dog PK Studies = settings: for AUC(0-last) / Cmax: S-ketamine in blood
Protocol: In vivo Dog PK Studies: Three male Beagle dogs were housed individually. Dogs in the oral administration groups were fasted overnight before treatment but with free access to water. Dogs in the IV groups had free access to food and water. For S-ketamine HCl salt, a single dose of […] was administered to each dog via intravenous (IV) administration. The vehicle used for S-ketamine HCl salt was saline. For other test compounds, a single dose of each test compound was administered to each dog via oral gavage (n=3/group). The vehicles used for dosing the test compounds were dependent on the properties of the test compound. Blood samples were collected at specified time-points (pre-dose, 10 min, 30 min, 1 h, 2 h, 3 h, 4 h, 5 h, 6 h, 8 h, post-dose) following administration to individual dogs within IV and PO group. To prevent compound degradation, drawn blood samples were immediately mixed in a ratio of 1:3 (v/v) with acetonitrile (containing 0.1% formic acid). The de-proteinized samples were temporarily held in ice following by storing at −70° C. before bioanalysis. The concentrations of analytes in the blood were determined by LC-MS/MS. Various pharmacokinetic parameters were calculated using Phoenix™ WinNonlin® software. To quantify the bioconversion efficiency of the test compounds in the circulation system, the bioavailability of S-ketamine after PO administration was calculated.
as §1, §2

[8] = oral, bioavailability with respect to S-ketamine (Table 5 summary)

In the case of `CN[C@@]1(c2ccccc2Cl)CCCCC1=O` [(R)-ketamine], the Cmax [1] is given as “about 41 ng/mL”, the Tmax [1] is given as “about 31 min” and the oral bioavailability [1] is given as “about 18%”.

For `CNC1(c2ccccc2Cl)CCCCC1=O` (centres unmarked) [Ketamine, 2-(2-chiorophenyl)-2-(methylamino)cyclohexan-1-one], the “oral bioavailability in humans (% F)” value [1] is given as “about 20%”.

In the case of `CN[C@]1(c2ccccc2Cl)CCCCC1=O` [S-ketamine], the “Monkey Ket (%)” value [2] is reported as 100%, the “Mouse Ket (%)” value [3] is reported as 100% and the “Rat Ket (%)” value [4] is reported as 100%. The “AUC(0-∞)” value ([5]; monkeys, IV @5 μmol/kg) was 2325 nM·h, the Cmax ([5]; monkeys, IV @5 μmol/kg) was 1200 nM and the “AUC(0-∞)” value ([5]; monkeys, PO @10 μmol/kg) was 34 nM·h. The Cmax ([5]; monkeys, PO @10 μmol/kg) was 13 nM, the F ([5]; monkeys, PO @10 μmol/kg, bioavailability of S-ketamine) was 0.7% and the “Monkey F” value [5, 8] was 0.7%. For the same molecule, the “Human Ket (%)” value [6] was 100%, the “Dog Ket (%)” value [7] was 100% and the “Rat F” value (In vivo Rat PK Studies) was 4.9%. For the same molecule, the “Mouse F” value (In vivo Mouse PK Studies) was 5.6%, the Cmax [1] was “about 41 ng/mL” and the Tmax [1] was “about 31 min”. For the same molecule, the oral bioavailability [1] was “about 18%”, the “AUC(0-last)” value (In vivo Dog PK Studies; dogs, IV @3.75 μmol/kg) was 244 nM·h and the Cmax (In vivo Dog PK Studies; dogs, IV @3.75 μmol/kg) was 669 nM. The “AUC(0-last)” value (In vivo Dog PK Studies; dogs, PO 15 μmol/kg) was 17 nM·h, the Cmax (In vivo Dog PK Studies; dogs, PO 15 μmol/kg) was 9 nM and the F (In vivo Dog PK Studies; dogs, PO 15 μmol/kg, bioavailability of S-ketamine) was 1.8%. For the same molecule, the “Dog F” value (In vivo Dog PK Studies; [8]) was 1.8%.
